Laboratory results published in PubChem BioAssay AID463204 (Broad Institute, 2010).
Active and inactive are the calls of the source.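 How the source made its calls: active means AC50 no more than ten times the top concentration tested, that is within one log above it; inconclusive means flat curve fit with activity between 30% and 70%, or invalid poor fit; inactive means AC50 beyond ten times the top tested dose.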

The molecules below were run on S. cerevisiae Mot1-301 ts growth rescue, BacTiter-Glo ATP luminescence (assay: growth rescue of Mot1-301 ts yeast, confirmation, SUMOylation pathway inhibitor project, whole organism, S. cerevisiae, Mot1-301 ts mutant, luminescence, dose retest (AID 463204);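 further: growth at restrictive 38.5 degrees C of Mot1-301 OY566 strain; actives raise luminescence by restoring growth of the ts mutant at high temperature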).
For `Oc1c(Br)cc(Br)cc1/C=N/N1CCN(Cc2ccccc2)CC1`, the AC50 was 1.78 µM.
With `O=c1[nH]nc(Cc2ccc(-c3ccccc3Cl)o2)c2ccccc12` the AC50 was > 42 µM (inactive).
In the case of `CC1(OC(=O)CCc2ccccc2)C(=O)C=C2C=C(c3ccc(C#N)cc3)N(C3CCCC3)C=C2C1=O` (stereo unspecified), the AC50 is reported as > 42 µM (inactive).
In the case of `N#CC1=C(N)Nc2ncnn2C1c1ccc([N+](=O)[O-])cc1` (stereo unspecified), the AC50 is reported as > 42 µM (inactive).
With `CSc1nncc(/C(C)=N\Nc2cccc(C)c2)n1` the AC50 was > 42 µM (inactive).
In the case of `CCN(CC)C(=O)CSc1nnc(CNc2ccc(F)cc2)n1Cc1ccco1`, the AC50 is reported as > 42 µM (inactive).
In the case of `c1ccc(-c2cc3ccccc3cn2)cc1`, the AC50 is reported as 35 µM.
With `CN1CCCC(n2nc(Cc3ccc(Cl)cc3)c3ccccc3c2=O)CC1` (stereo unspecified) the AC50 was > 42 µM (inactive).
`CS(=O)(=O)N(CC(=O)NCCSCc1ccccc1)c1ccc2c(c1)OCO2` was tested, and the AC50 was > 42 µM (inactive).
In the case of `COC(=O)c1cc2c(s1)-c1ccc(OC)cc1CC2`, the AC50 is reported as > 42 µM (inactive).
For `Cc1ccc(NC(=O)NNC(=O)Cn2nc(-c3ccccc3)c(-c3ccccc3)c(C#N)c2=O)cc1`, the AC50 was > 42 µM (inactive).
For `Cc1ccc(NS(=O)(=O)c2ccc(NC(=O)C3CCCO3)cc2)cc1` (stereo unspecified), the AC50 was > 42 µM (inactive).
`CN(c1ccccc1)c1ccc(/C=C/[N+](=O)[O-])cc1` was tested, and the AC50 was 5.85 µM.
In the case of `Cc1cccc(/C=N/NC(=O)Cc2cccs2)c1`, the AC50 is reported as > 42 µM (inactive).
In the case of `O=C(Nc1ncccn1)c1ccc(C(F)(F)F)cc1`, the AC50 is reported as > 42 µM (inactive).
`COCC(=O)n1nc(-c2ccc(Cl)cc2)nc1NCc1ccc(F)cc1` was tested, and the AC50 was > 42 µM (inactive).
`COc1ccc2c(c1)[C@H]1[C@H](CO2)[C@H](c2ccccc2)[C@]2(C)C(=O)Nc3ccc(F)cc3C(=O)N12` showed an AC50 of 5.38 µM.
With `CC(NC(=O)c1cnc2n(c1=O)CCS2)c1ccccc1` (stereo unspecified) the AC50 was > 42 µM (inactive).
`O=C1NC2(CCCCO2)CO1` (stereo unspecified) was tested, and the AC50 was > 42 µM (inactive).
In the case of `COc1ccc(C(=O)CC(=O)C(=O)Nc2ccc(C)c(Cl)c2)cc1`, the AC50 is reported as > 42 µM (inactive).
`CN1C(=O)C(=Cc2cn(CC(=O)N3CCCC3)c3ccccc23)C(=O)N(C)C1=O` was tested, and the AC50 was > 42 µM (inactive).
For `Cc1ccc(-n2c(C)cc(/C=N/NC(=O)c3ccncc3)c2C)cc1C`, the AC50 was > 42 µM (inactive).
In the case of `CCCc1nn2c(=O)cc(CSCC(=O)Nc3ccc(OC)cc3)nc2s1`, the AC50 is reported as > 42 µM (inactive).
In the case of `CN(C(=O)c1ccncc1)c1nnc(-c2cnccn2)s1`, the AC50 is reported as > 42 µM (inactive).
In the case of `CC(C)CCNC(=O)Cn1c(=O)oc2cc(S(=O)(=O)N3CC(C)CC(C)C3)ccc21` (stereo unspecified), the AC50 is reported as > 42 µM (inactive).
`Cc1cc(NC(=O)CSc2ncn(-c3ccccc3)n2)no1` was tested, and the AC50 was > 42 µM (inactive).
`CC1(OC(=O)C2CCCC2)C(=O)C=C2C=C(c3ccsc3)OC=C2C1=O` (stereo unspecified) was tested, and the AC50 was > 42 µM (inactive).
`Fc1cccc(F)c1-c1nc(-c2ccncc2)no1` was tested, and the AC50 was > 42 µM (inactive).
With `Cc1nc2ccccc2c(=O)n1CC(=O)N1CCOCC1` the AC50 was > 42 µM (inactive).
For `CC1CCN(C(=O)c2[nH]cnc2C(=O)NCC(=O)OCc2ccccc2)CC1`, the AC50 was > 42 µM (inactive).
In the case of `Cc1cc(=O)n2[nH]c(-c3ccc(F)cc3)nc2n1`, the AC50 is reported as > 42 µM (inactive).
With `CCOC(=O)CSc1nc2ccccc2c(=O)n1CC(C)C` the AC50 was > 42 µM (inactive).
In the case of `CN1C2CCC1CC(OC(=O)c1ccc([N+](=O)[O-])cc1)C2` (stereo unspecified), the AC50 is reported as > 42 µM (inactive).
In the case of `COCCN(C(=O)C1CC1)c1nnc(-c2ccc(C)cc2)s1`, the AC50 is reported as > 42 µM (inactive).
For `CCC1SC2=NC(C)=C(C(=O)OCCOC)C(c3ccc(C(=O)OC)cc3)N2C1=O` (stereo unspecified), the AC50 was > 42 µM (inactive).
With `CCn1c(SCC(=O)Nc2ccc(OCc3ccccc3)cc2)nnc1-c1ccco1` the AC50 was > 42 µM (inactive).
In the case of `CCC(=O)Nc1ccc(Br)c(Cl)c1`, the AC50 is reported as > 42 µM (inactive).
In the case of `CCC(c1nc2ccccc2c(=O)n1-c1nc2ccccc2s1)N1C(=O)c2ccccc2C1=O` (stereo unspecified), the AC50 is reported as > 42 µM (inactive).
For `CCOc1ccc(S(=O)(=O)N2CCN(C(=O)CN3C(=O)NC4(CCCC4)C3=O)CC2)cc1`, the AC50 was > 42 µM (inactive).
`COc1ccc(NC(=O)CN(C)C(=O)/C=C/c2cn(-c3ccccc3)nc2-c2ccc(F)cc2)cc1` was tested, and the AC50 was > 42 µM (inactive).
`Cc1ccc(C(=O)O)cc1N=Cc1cc(Br)cc(Br)c1O` gave an AC50 of 2.45 µM.
In the case of `COc1ccc(NC2CCCN(C(=O)c3csc(C)n3)C2)cc1` (stereo unspecified), the AC50 is reported as > 42 µM (inactive).
In the case of `CC1CCCCC1N=CC1=C(O)CC(C)(C)CC1=O` (stereo unspecified), the AC50 is reported as > 42 µM (inactive).
For `Cc1nc2sc(C(c3ccco3)N3CCOCC3)c(O)n2n1` (stereo unspecified), the AC50 was > 42 µM (inactive).
For `COC(=O)c1sccc1NC(=S)N1CCCCC1`, the AC50 was > 42 µM (inactive).
`CC(=O)c1cccc(NC(=O)CNC(=O)c2sc3ccccc3c2Cl)c1` was tested, and the AC50 was > 42 µM (inactive).
In the case of `O=C1CC(c2ccccc2)c2ccc(O)cc2O1` (stereo unspecified), the AC50 is reported as > 42 µM (inactive).
`CCn1c(C)c(C(C)=O)c(N2CCN(c3ccc(F)cc3)CC2)nc1=S` was tested, and the AC50 was > 42 µM (inactive).
For `c1ccc2c(C[C@@H]3CNCCN3CCCCC3CCCCC3)cccc2c1`, the AC50 was 15.6 µM.
`CCOC(=O)C1=C[C@]2(CC)CCCN3CCc4c(n1c1ccccc41)[C@@H]32` was tested, and the AC50 was > 42 µM (inactive).
`O=[N+]([O-])c1ccc(N/N=C/c2cccc(O)c2)cc1` showed an AC50 of 29.4 µM.
For `O=C(NNc1ccccc1)C(CCO)C(=O)NNc1ccccc1`, the AC50 was > 42 µM (inactive).
`COc1cc(C(=O)NCCC2=CCCCC2)cc(OC)c1OC` was tested, and the AC50 was > 42 µM (inactive).
With `CC1CN=C(NCc2ccccc2)S1` (stereo unspecified) the AC50 was > 42 µM (inactive).
In the case of `CCOc1ccc(N(C(C)C(=O)NC(C)CC)S(C)(=O)=O)cc1` (stereo unspecified), the AC50 is reported as > 42 µM (inactive).
In the case of `COc1ccccc1N1CCN(C(=O)C(=O)N/N=C/c2ccccc2F)CC1`, the AC50 is reported as > 42 µM (inactive).
For `CC1(C)CC(=O)C(C(=O)c2ccccc2)C(=O)C1Cl` (stereo unspecified), the AC50 was > 42 µM (inactive).
For `CCCCn1c(N)c(N(Cc2ccccc2OC)C(=O)c2c(CC)noc2C)c(=O)[nH]c1=O`, the AC50 was > 42 µM (inactive).
For `COc1ccccc1N1CCN(C(=O)c2ccc(-c3ccccc3)cc2)CC1`, the AC50 was > 42 µM (inactive).
For `COc1ccc(NC(=O)Nc2ccc(OC)cc2)cc1`, the AC50 was > 42 µM (inactive).
In the case of `c1ccc(CCCc2nc(-c3cccnc3)no2)cc1`, the AC50 is reported as > 42 µM (inactive).
With `O=S(=O)(Cc1ccccc1)N1CCN(c2ccccc2)CC1` the AC50 was > 42 µM (inactive).
With `CCOC(=O)C1=C(N)c2ccccc2CC1C1CCCC1` (stereo unspecified) the AC50 was > 42 µM (inactive).
With `CC1CCCN(C(=O)Cc2ccc(F)cc2)C1` (stereo unspecified) the AC50 was > 42 µM (inactive).
With `C/C(N)=C(/C#N)C(=O)CSc1nnc(-c2ccccc2)n1C` the AC50 was > 42 µM (inactive).
With `Cc1ccc(NS(=O)(=O)c2csc(C(N)=O)c2)cc1C` the AC50 was > 42 µM (inactive).
In the case of `O=C1CCCN1CCC1CCN(C2CC(=O)N(c3ccc(Cl)cc3)C2=O)CC1` (stereo unspecified), the AC50 is reported as 10.1 µM.
With `C=C(C)Cn1c(SCC(=O)N/N=C/c2ccccc2OCC(=O)O)nnc1-c1ccc(Br)cc1` the AC50 was > 42 µM (inactive).
`Fc1cccc(NC(=S)N2CCn3cccc3C2c2cccnc2)c1` (stereo unspecified) was tested, and the AC50 was > 42 µM (inactive).
With `COCCn1c(C)cc(C(=O)CN2C(=O)NC3(CCCCCCC3)C2=O)c1C` the AC50 was > 42 µM (inactive).
In the case of `CCOC(=O)COc1nc(-c2ccc(C)cc2)cc(-c2ccco2)c1C#N`, the AC50 is reported as > 42 µM (inactive).
In the case of `Cc1nnc(NC(=O)c2ccc(-c3cccc(C(F)(F)F)c3)o2)s1`, the AC50 is reported as > 42 µM (inactive).
`CN(C)CCCN(Cc1ccccc1)C(=S)Nc1ccc(F)c(Cl)c1` was tested, and the AC50 was > 42 µM (inactive).
`COc1ccc(CNC(=O)c2cc(=O)c3cc(C)cc(C)c3o2)cc1` was tested, and the AC50 was > 42 µM (inactive).
In the case of `O=C(NCCc1cnccn1)C1CCC(=O)N(Cc2ccc(Cl)cc2)C1` (stereo unspecified), the AC50 is reported as > 42 µM (inactive).
For `COC(=O)c1ccccc1SC(CC(=O)c1ccccc1)c1ccc(F)cc1` (stereo unspecified), the AC50 was > 42 µM (inactive).
With `Cc1[nH]c(C)c(S(=O)(=O)NCC(C)c2ccccc2)c1C(=O)N1CCCCC1` (stereo unspecified) the AC50 was > 42 µM (inactive).
In the case of `CCOC(=O)c1sc2ncnc(N3CCN(c4ccc(OC)cc4)CC3)c2c1C`, the AC50 is reported as > 42 µM (inactive).
`O=C(COc1ccc([N+](=O)[O-])cc1)Nc1ccc(C(=O)NCc2cccnc2)cc1` was tested, and the AC50 was > 42 µM (inactive).
`O=C(C1CCN(C2CC(=O)N(c3cccc(Cl)c3)C2=O)CC1)N1CCCC1` (stereo unspecified) showed an AC50 of 7.84 µM.
`COc1ccc2c(c1)OC[C@H]1[C@H]2N2C(=O)c3cc(C)ccc3NC(=O)[C@@]2(C)[C@H]1c1ccccc1` gave an AC50 of 1.39 µM.
In the case of `CC(C)n1c(O)c(N=Nc2ccccn2)c2ccccc21`, the AC50 is reported as > 42 µM (inactive).
`COc1ccccc1-c1nnc(SCC(=O)NC2CCS(=O)(=O)C2)n1N` (stereo unspecified) was tested, and the AC50 was > 42 µM (inactive).
`COc1ccc(CCC(=O)NNC(=S)Nc2cccc(C(C)=O)c2)cc1` was tested, and the AC50 was > 42 µM (inactive).
`CCOC(=O)C1C(c2ccc(C)o2)NC(=O)NC1(O)C(F)(F)F` (stereo unspecified) was tested, and the AC50 was > 42 µM (inactive).
With `NNC(=O)c1oc2nc(-c3ccccc3)cc(-c3ccccc3)c2c1N` the AC50 was > 42 µM (inactive).
In the case of `Cc1cccc(N2CN=c3s/c(=C\c4ccccn4)c(=O)n3C2)c1`, the AC50 is reported as > 42 µM (inactive).
In the case of `CCn1c(SCC(=O)NC2CCCCC2)nnc1C(C)NC(=O)c1ccccc1F` (stereo unspecified), the AC50 is reported as > 42 µM (inactive).
`Cc1ccccc1-c1nc2ccc(Cl)cc2c(=O)n1O` was tested, and the AC50 was > 42 µM (inactive).
In the case of `COc1ccccc1CNC(=O)CN(c1ccc(C)cc1)S(=O)(=O)c1c(C)n[nH]c1C`, the AC50 is reported as > 110 µM (inactive).
For `COc1cc(C(=O)OCC(=O)NCc2ccccc2)cc(NC(=O)c2ccco2)c1OC`, the AC50 was > 42 µM (inactive).
`O=C(COc1ncnc2c(Cl)cc(Cl)cc12)NCCC1=CCCCC1` was tested, and the AC50 was > 42 µM (inactive).
In the case of `O=C(CN1CCN(Cc2ccc(F)cc2)CC1)NCc1ccccc1`, the AC50 is reported as > 42 µM (inactive).
In the case of `CCn1c(SCC(=O)OC)nnc1-c1ccncc1`, the AC50 is reported as > 42 µM (inactive).
For `CCn1ncc(Br)c1C(=O)Nc1ccc(OC(F)(F)F)cc1`, the AC50 was > 42 µM (inactive).
`O=C(CSc1ccc(Br)cc1)Nc1ccccc1N1CCOCC1` was tested, and the AC50 was > 42 µM (inactive).
`Cc1ccc(CNC(=O)CCNS(=O)(=O)c2cccs2)cc1` was tested, and the AC50 was > 42 µM (inactive).
In the case of `O=C(O)COc1ccc(=O)n(-c2ccccc2)n1`, the AC50 is reported as > 42 µM (inactive).
`COC(=O)c1cn(C(=O)c2cccc3ccccc23)c2ccccc12` was tested, and the AC50 was > 42 µM (inactive).
For `CCc1ccc2c(c1)C(c1ccc([N+](=O)[O-])cc1)=NNC(c1ccc(C)cc1)=N2`, the AC50 was > 42 µM (inactive).
`COc1ccc(C(=O)OCC(=O)c2ccccc2)cc1S(=O)(=O)N1CCOCC1` was tested, and the AC50 was > 42 µM (inactive).
